{"source": "patent US20110143948A1", "about": "“MOLECULAR SIGNATURES AND BIOMARKERS ASSOCIATED WITH MELANOMA AND METHODS OF USE THEREOF” (priority 2008, published 2011)", "tested_on": "ncRNAs (SEQ ID NO 28-89)", "assay": "ncRNA arrays of melanocytes, keratinocytes, normal skin, melanoma cell lines and patient samples", "design": "species or system human", "settings": "for ncRNA array expression, patient 2: melanoma patient 2 sample compared to normal skin; for ncRNA array expression, patient 3: melanoma patient 3 sample compared to normal skin; for ncRNA array expression, patient 4: melanoma patient 4 sample compared to normal skin; for ncRNA array expression, patient 5: melanoma patient 5 sample compared to normal skin; for ncRNA array expression, patient 6: melanoma patient 6 sample compared to normal skin; for ncRNA array expression, patient 7: melanoma patient 7 sample compared to normal skin; for ncRNA array expression, patient 8: melanoma patient 8 sample compared to normal skin; for ncRNA array expression, patient 9: melanoma patient 9 sample compared to normal skin; for ncRNA array expression, patient 10: melanoma patient 10 sample compared to normal skin; for ncRNA array expression, patient 19: melanoma patient 19 sample compared to normal skin; for ncRNA array expression, patient 20: melanoma patient 20 sample compared to normal skin; for ncRNA array expression, patient 21: melanoma patient 21 sample compared to normal skin; for ncRNA array expression, patient 22: melanoma patient 22 sample compared to normal skin; for ncRNA array expression, patient 23: melanoma patient 23 sample compared to normal skin; for ncRNA array expression, patient 24: melanoma patient 24 sample compared to normal skin; for ncRNA array expression, patient 25: melanoma patient 25 sample compared to normal skin; for ncRNA array expression, patient 26: melanoma patient 26 sample compared to normal skin; for ncRNA array expression, patient 27: melanoma patient 27 sample compared to normal skin; for ncRNA array expression, patient 28: melanoma patient 28 sample compared to normal skin; for ncRNA array expression, patient 29: melanoma patient 29 sample compared to normal skin; for ncRNA array expression, patient 30: melanoma patient 30 sample compared to normal skin", "summary_of_the_method": "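Differential ncRNA expression was defined against melanocytes or normal skin after subtracting keratinocyte-specific signals, with confirmation by qRT-PCR and Northern blot. Samples were melanoma cell lines, patient tumours, melanocytes, keratinocytes and normal skin, hybridised to a >10,000-probe (>200 nt) ncRNA array that also carries RefSeq mRNA probes.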", "data": [{"substance": "SEQ ID NO 72 (AATTACATATATTTAGCAGGATTTTTATTTGCCGTGATATATAGGATAATTTAGTCTTTG; listed as DNA, chemistry not given here; listed as Homo sapiens)", "values": [{"measurement": "ncRNA array expression, patient 2", "value": 2.217}, {"measurement": "ncRNA array expression, patient 3", "value": 2.382}, {"measurement": "ncRNA array expression, patient 4", "value": 2.566}, {"measurement": "ncRNA array expression, patient 5", "value": 1.096}, {"measurement": "ncRNA array expression, patient 6", "value": 2.336}, {"measurement": "ncRNA array expression, patient 7", "value": 2.665}, {"measurement": "ncRNA array expression, patient 8", "value": 3.323}, {"measurement": "ncRNA array expression, patient 9", "value": "−0.6629"}, {"measurement": "ncRNA array expression, patient 10", "value": 2.245}, {"measurement": "ncRNA array expression, patient 19", "value": 0.2985}, {"measurement": "ncRNA array expression, patient 20", "value": 1.011}, {"measurement": "ncRNA array expression, patient 21", "value": 0.6264}, {"measurement": "ncRNA array expression, patient 22", "value": 0.5499}, {"measurement": "ncRNA array expression, patient 23", "value": 0.09129}, {"measurement": "ncRNA array expression, patient 24", "value": 2.832}, {"measurement": "ncRNA array expression, patient 25", "value": 3.664}, {"measurement": "ncRNA array expression, patient 26", "value": 3.29}, {"measurement": "ncRNA array expression, patient 27", "value": 2.308}, {"measurement": "ncRNA array expression, patient 28", "value": 1.044}, {"measurement": "ncRNA array expression, patient 29", "value": 2.583}, {"measurement": "ncRNA array expression, patient 30", "value": "−1.3285"}]}, {"substance": "SEQ ID NO 73 (AAAGTTTCCCCATAATGCTCTTGCAAGTGAATATGAGCTGTGGTTTTTGCAGTGGAGTTA; listed as DNA, chemistry not given here; listed as Homo sapiens)", "values": [{"measurement": "ncRNA array expression, patient 2", "value": "−0.1172"}, {"measurement": "ncRNA array expression, patient 3", "value": 1.314}, {"measurement": "ncRNA array expression, patient 4", "value": 2.477}, {"measurement": "ncRNA array expression, patient 5", "value": "−0.06181"}, {"measurement": "ncRNA array expression, patient 6", "value": 1.506}, {"measurement": "ncRNA array expression, patient 7", "value": "−0.179"}, {"measurement": "ncRNA array expression, patient 8", "value": 1.518}, {"measurement": "ncRNA array expression, patient 9", "value": 1.007}, {"measurement": "ncRNA array expression, patient 10", "value": 1.767}, {"measurement": "ncRNA array expression, patient 19", "value": 3.505}, {"measurement": "ncRNA array expression, patient 20", "value": 0.6301}, {"measurement": "ncRNA array expression, patient 21", "value": 2.332}, {"measurement": "ncRNA array expression, patient 22", "value": 0.9622}, {"measurement": "ncRNA array expression, patient 23", "value": 0.07892}, {"measurement": "ncRNA array expression, patient 24", "value": 0.3377}, {"measurement": "ncRNA array expression, patient 25", "value": 1.57}, {"measurement": "ncRNA array expression, patient 26", "value": 1.308}, {"measurement": "ncRNA array expression, patient 27", "value": 0.1447}, {"measurement": "ncRNA array expression, patient 28", "value": 2.166}, {"measurement": "ncRNA array expression, patient 29", "value": 0.9153}, {"measurement": "ncRNA array expression, patient 30", "value": "−0.2612"}]}, {"substance": "SEQ ID NO 74 (TATATTACAGGAGTTGTCTATACGATTATAGTACCTGATTCTTTGGACATATCATTGAAC; listed as DNA, chemistry not given here; listed as Homo sapiens)", "values": [{"measurement": "ncRNA array expression, patient 2", "value": 2.155}, {"measurement": "ncRNA array expression, patient 3", "value": 1.879}, {"measurement": "ncRNA array expression, patient 4", "value": 2.326}, {"measurement": "ncRNA array expression, patient 5", "value": 0.3239}, {"measurement": "ncRNA array expression, patient 6", "value": 0.8281}, {"measurement": "ncRNA array expression, patient 7", "value": 2.016}, {"measurement": "ncRNA array expression, patient 8", "value": 1.309}, {"measurement": "ncRNA array expression, patient 9", "value": 0.6157}, {"measurement": "ncRNA array expression, patient 10", "value": 2.172}, {"measurement": "ncRNA array expression, patient 19", "value": "−0.2091"}, {"measurement": "ncRNA array expression, patient 20", "value": 0.8773}, {"measurement": "ncRNA array expression, patient 21", "value": 1.569}, {"measurement": "ncRNA array expression, patient 22", "value": 0.2398}, {"measurement": "ncRNA array expression, patient 23", "value": 1.776}, {"measurement": "ncRNA array expression, patient 24", "value": 0.8669}, {"measurement": "ncRNA array expression, patient 25", "value": 2.599}, {"measurement": "ncRNA array expression, patient 26", "value": 2.626}, {"measurement": "ncRNA array expression, patient 27", "value": 0.4062}, {"measurement": "ncRNA array expression, patient 28", "value": 2.421}, {"measurement": "ncRNA array expression, patient 29", "value": 1.974}, {"measurement": "ncRNA array expression, patient 30", "value": "−1.075"}]}, {"substance": "SEQ ID NO 75 (CAAGTGGGAAGAAAAAGAGCCCTACGTGGTGACATTCTGGAAGGATATCATGGATGATTG; listed as DNA, chemistry not given here; listed as Homo sapiens)", "values": [{"measurement": "ncRNA array expression, patient 2", "value": 0.5875}, {"measurement": "ncRNA array expression, patient 3", "value": 0.2177}, {"measurement": "ncRNA array expression, patient 4", "value": 1.062}, {"measurement": "ncRNA array expression, patient 5", "value": 1.072}, {"measurement": "ncRNA array expression, patient 6", "value": 1.853}, {"measurement": "ncRNA array expression, patient 7", "value": 2.114}, {"measurement": "ncRNA array expression, patient 8", "value": 2.605}, {"measurement": "ncRNA array expression, patient 9", "value": 1.117}, {"measurement": "ncRNA array expression, patient 10", "value": 0.6968}, {"measurement": "ncRNA array expression, patient 19", "value": 1.219}, {"measurement": "ncRNA array expression, patient 20", "value": 2.945}, {"measurement": "ncRNA array expression, patient 21", "value": 1.592}, {"measurement": "ncRNA array expression, patient 22", "value": 1.681}, {"measurement": "ncRNA array expression, patient 23", "value": 1.545}, {"measurement": "ncRNA array expression, patient 24", "value": 2.209}, {"measurement": "ncRNA array expression, patient 25", "value": "−0.3024"}, {"measurement": "ncRNA array expression, patient 26", "value": 0.226}, {"measurement": "ncRNA array expression, patient 27", "value": 3.291}, {"measurement": "ncRNA array expression, patient 28", "value": 1.546}, {"measurement": "ncRNA array expression, patient 29", "value": 2.221}, {"measurement": "ncRNA array expression, patient 30", "value": "−1.4645"}]}, {"substance": "SEQ ID NO 76 (TGTTTCTAATGCATACTGTGAAAGGAAAAAAAATCACAGTTATCCACCTTCTCAGGGCCT; listed as DNA, chemistry not given here; listed as Homo sapiens)", "values": [{"measurement": "ncRNA array expression, patient 2", "value": "−1.682"}, {"measurement": "ncRNA array expression, patient 3", "value": "−1.051"}, {"measurement": "ncRNA array expression, patient 4", "value": "−1.297"}, {"measurement": "ncRNA array expression, patient 5", "value": "−1.036"}, {"measurement": "ncRNA array expression, patient 6", "value": 0.3953}, {"measurement": "ncRNA array expression, patient 7", "value": "−1.741"}, {"measurement": "ncRNA array expression, patient 8", "value": "−1.681"}, {"measurement": "ncRNA array expression, patient 9", "value": "−1.284"}, {"measurement": "ncRNA array expression, patient 10", "value": "−0.6169"}, {"measurement": "ncRNA array expression, patient 19", "value": "−0.775"}, {"measurement": "ncRNA array expression, patient 20", "value": "−1.184"}, {"measurement": "ncRNA array expression, patient 21", "value": "−1.216"}, {"measurement": "ncRNA array expression, patient 22", "value": "−0.05441"}, {"measurement": "ncRNA array expression, patient 23", "value": 0.7328}, {"measurement": "ncRNA array expression, patient 24", "value": "−1.262"}, {"measurement": "ncRNA array expression, patient 25", "value": "−1.549"}, {"measurement": "ncRNA array expression, patient 26", "value": "−1.597"}, {"measurement": "ncRNA array expression, patient 27", "value": "−1.555"}, {"measurement": "ncRNA array expression, patient 28", "value": "−1.598"}, {"measurement": "ncRNA array expression, patient 29", "value": "−1.765"}, {"measurement": "ncRNA array expression, patient 30", "value": 0.4068}]}, {"substance": "SEQ ID NO 77 (AAGTTTCCACGGCAGGTTCTCGTAGCACCTTTGGTCAAGAACTGAAGGGGCCTTTAGATG; listed as DNA, chemistry not given here; listed as Homo sapiens)", "values": [{"measurement": "ncRNA array expression, patient 2", "value": "−2.141"}, {"measurement": "ncRNA array expression, patient 3", "value": "−1.9159"}, {"measurement": "ncRNA array expression, patient 4", "value": "−2.042"}, {"measurement": "ncRNA array expression, patient 5", "value": "−1.549"}, {"measurement": "ncRNA array expression, patient 6", "value": "−0.8383"}, {"measurement": "ncRNA array expression, patient 7", "value": "−1.639"}, {"measurement": "ncRNA array expression, patient 8", "value": "−1.644"}, {"measurement": "ncRNA array expression, patient 9", "value": "−2.053"}, {"measurement": "ncRNA array expression, patient 10", "value": "−2.146"}, {"measurement": "ncRNA array expression, patient 19", "value": "−0.2581"}, {"measurement": "ncRNA array expression, patient 20", "value": "−1.526"}, {"measurement": "ncRNA array expression, patient 21", "value": "−1.23"}, {"measurement": "ncRNA array expression, patient 22", "value": "−0.5892"}, {"measurement": "ncRNA array expression, patient 23", "value": 0.23}, {"measurement": "ncRNA array expression, patient 24", "value": "−1.578"}, {"measurement": "ncRNA array expression, patient 25", "value": "−2.219"}, {"measurement": "ncRNA array expression, patient 26", "value": "−2.157"}, {"measurement": "ncRNA array expression, patient 27", "value": "−1.387"}, {"measurement": "ncRNA array expression, patient 28", "value": "−1.165"}, {"measurement": "ncRNA array expression, patient 29", "value": "−1.796"}, {"measurement": "ncRNA array expression, patient 30", "value": 0.6447}]}]}
